Measurements reported in patent publication US20140094465A1, “Compounds as S-Nitrosoglutathione Reductase Inhibitors” (N30 PHARMACEUTICALS, INC., priority 2011, published 2014).

The compounds below were run against T1, S-nitrosoglutathione reductase (GSNOR) (Homo sapiens, UniProt P11766) (assay: GSNOR assay (inhibition of GSNOR activity, NADH absorbance at 340 nm)). Settings: not given.
T1 construct: made in house; host or cells: E. coli
Assay type: biochemical
Method in brief: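 Recombinant GSNOR purified from E. coli, tag removed. Final conditions: 100 mM NaPO4 pH 7.4, 0.240 mM GSNO, 0.300 mM NADH, 0.5 μg/mL enzyme, 1% DMSO; NADH loss followed as 340 nm absorbance change over 3 min at 25 °C. Compounds 100–0.003 μM, triplicate; IC50 by curve analysis.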

T1 sequence (P11766 whole entry): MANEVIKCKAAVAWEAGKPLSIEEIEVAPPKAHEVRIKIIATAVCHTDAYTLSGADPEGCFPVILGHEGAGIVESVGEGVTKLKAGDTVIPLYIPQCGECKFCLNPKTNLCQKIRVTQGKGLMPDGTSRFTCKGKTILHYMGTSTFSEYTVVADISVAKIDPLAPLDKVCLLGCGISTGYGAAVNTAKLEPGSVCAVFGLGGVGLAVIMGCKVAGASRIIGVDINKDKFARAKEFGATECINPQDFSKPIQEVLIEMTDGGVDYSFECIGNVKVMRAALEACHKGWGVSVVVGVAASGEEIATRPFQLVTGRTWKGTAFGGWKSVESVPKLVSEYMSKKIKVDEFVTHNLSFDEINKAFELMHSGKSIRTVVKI

For `O=C(O)c1ccc(-n2c(C(F)(F)F)nc3cc(O)ccc3c2=O)cc1` [VIII-2, 4-(7-hydroxy-4-oxo-2-(trifluoromethyl)quinazolin-3(4H)-yl)benzoic acid], which IC50 is on record?
Its IC50 is 100 to 1000 nM.

Same assay, conditions: Table 7; GSNOR inhibition, IC50 range class a/b/c; read-out: IC50

How did the IC50 turn out when `CC(C)CCCn1c(-c2ccc(O)cc2)ccc1-c1ccc(C(=O)O)cc1` [VII-30, 4-(5-(4-hydroxyphenyl)-1-(4-methylpentyl)-1H-pyrrol-2-yl)benzoic acid] was run?
The IC50 was under 100 nM.

Which IC50 does the source give for `CC(C)OCCCn1c(-c2ccc(O)cc2)ccc1-c1ccc(C(=O)O)cc1` [VII-31, 4-(5-(4-hydroxyphenyl)-1-(3-isopropoxypropyl)-1H-pyrrol-2-yl)benzoic acid] here?
Its IC50 is under 100 nM.

Which IC50 does the source give for `CC(C)n1c(-c2ccc(O)cc2)ccc1-c1ccc(C(=O)O)cc1` [VII-32, 4-(5-(4-hydroxyphenyl)-1-isopropyl-1H-pyrrol-2-yl)benzoic acid] here?
The IC50 was under 100 nM.

How did the IC50 turn out when `COCCn1c(-c2ccc(O)cc2)ccc1-c1ccc(C(=O)O)cc1` [VII-33, 4-(5-(4-hydroxyphenyl)-1-(2-methoxyethyl)-1H-pyrrol-2-yl)benzoic acid] was run?
The IC50 was 100 to 1000 nM.

Which IC50 does the source give for `CCCCCCn1c(-c2ccc(O)cc2)ccc1-c1ccc(C(=O)O)cc1` [VII-34, 4-(1-hexyl-5-(4-hydroxyphenyl)-1H-pyrrol-2-yl)benzoic acid] here?
Its IC50 is under 100 nM.

For `CCOCCn1c(-c2ccc(O)cc2)ccc1-c1ccc(C(=O)O)cc1` [VII-35, 4-(1-(2-ethoxyethyl)-5-(4-hydroxyphenyl)-1H-pyrrol-2-yl)benzoic acid], which IC50 is on record?
Its IC50 is under 100 nM.

Which IC50 does the source give for `CCOCCCn1c(-c2ccc(O)cc2)ccc1-c1ccc(C(=O)O)cc1` [VII-36, 4-(1-(3-ethoxypropyl)-5-(4-hydroxyphenyl)-1H-pyrrol-2-yl)benzoic acid] here?
The IC50 was under 100 nM.

With `CCCn1c(-c2ccc(O)cc2)ccc1-c1ccc(C(=O)O)cc1` [VII-37, 4-(5-(4-hydroxyphenyl)-1-propyl-1H-pyrrol-2-yl)benzoic acid] as the compound, how does the IC50 read?
Its IC50 is under 100 nM.

Same assay, conditions: Table 8; GSNOR inhibition, IC50 range class a/b/c; read-out: IC50

How did the IC50 turn out when `CSc1nc2cc(O)ccc2c(=O)n1-c1ccc(C(=O)O)cc1` [VIII-1, 4-(7-hydroxy-2-(methylthio)-4-oxoquinazolin-3(4H)-yl)benzoic acid] was run?
Its IC50 is 1000 to 10000 nM.

With `O=C(O)c1ccc(-n2ccc3cc(O)ccc3c2=O)cc1` [VIII-3, 4-(6-hydroxy-1-oxoisoquinolin-2(1H)-yl)benzoic acid] as the compound, how does the IC50 read?
The IC50 was under 100 nM.

`O=C(O)c1ccc(N2CCc3cc(O)ccc3C2=O)cc1` [VIII-4, 4-(6-hydroxy-1-oxo-3,4-dihydroisoquinolin-2(1H)-yl)benzoic acid] was tested. Which IC50 did it give?
Its IC50 is under 100 nM.

`Oc1ccc2nc(-c3ccc(-c4nnn[nH]4)cc3)sc2c1` [VIII-5, 2-(4-(1H-tetrazol-5-yl)phenyl)benzo[d]thiazol-6-ol] was tested. Which IC50 did it give?
The IC50 was 100 to 1000 nM.

Which IC50 does the source give for `O=C(O)c1ccc(N2CCc3cc(O)ccc3C2)cc1` [VIII-6, 4-(6-hydroxy-3,4-dihydroisoquinolin-2(1H)-yl)benzoic acid] here?
The IC50 was 1000 to 10000 nM.

With `O=C(O)c1ccc(-c2nc3ccc(O)cc3s2)cc1` [VIII-7, 4-(6-hydroxybenzo[d]thiazol-2-yl)benzoic acid] as the compound, how does the IC50 read?
The IC50 was 100 to 1000 nM.

`O=C(O)c1ccc(-c2cc(=O)c3cc(O)ccc3[nH]2)c(F)c1` [VIII-8, 3-fluoro-4-(6-hydroxy-4-oxo-1,4-dihydroquinolin-2-yl)benzoic acid] was tested. Which IC50 did it give?
The IC50 was 1000 to 10000 nM.

With `O=C(O)c1ccc(-c2cc(=O)c3cc(O)ccc3[nH]2)c(Cl)c1` [VIII-9, 3-chloro-4-(6-hydroxy-4-oxo-1,4-dihydroquinolin-2-yl)benzoic acid] as the compound, how does the IC50 read?
Its IC50 is 1000 to 10000 nM.

Which IC50 does the source give for `Cn1c(-c2ccc(C(=O)O)cc2)nc2ccc(O)cc2c1=O` [VIII-10, 4-(6-hydroxy-3-methyl-4-oxo-3,4-dihydroquinazolin-2-yl)benzoic acid] here?
The IC50 was under 100 nM.

Which IC50 does the source give for `Cn1c(-c2ccc(C(=O)O)cc2)cc2ccc(O)cc2c1=O` [VIII-11, 4-(7-hydroxy-2-methyl-1-oxo-1,2-dihydroisoquinolin-3-yl)benzoic acid] here?
Its IC50 is 100 to 1000 nM.

`Cc1cc2cc(O)ccc2c(=O)n1[C@H]1CC[C@H](C(=O)O)CC1` [VIII-12, (trans)-4-(6-hydroxy-3-methyl-1-oxoisoquinolin-2(1H)-yl)cyclohexanecarboxylic acid] was tested. Which IC50 did it give?
Its IC50 is 100 to 1000 nM.

`Cc1cc2cc(O)ccc2c(=O)n1-c1ccc(C(=O)O)cc1` [VIII-13, 4-(6-hydroxy-3-methyl-1-oxoisoquinolin-2(1H)-yl)benzoic acid] was tested. Which IC50 did it give?
The IC50 was 100 to 1000 nM.

How did the IC50 turn out when `O=c1c2ccc(O)cc2ccn1[C@H]1CC[C@H](C(=O)O)CC1` [VIII-14, (trans)-4-(6-hydroxy-1-oxoisoquinolin-2(1H)-yl)cyclohexanecarboxylic acid] was run?
The IC50 was 1000 to 10000 nM.

For `O=c1c2ccc(O)cc2cc(C(F)(F)F)n1[C@H]1CC[C@H](C(=O)O)CC1` [VIII-15, (trans)-4-(6-hydroxy-1-oxo-3-(trifluoromethyl)isoquinolin-2(1H)-yl)cyclohexanecarboxylic acid], which IC50 is on record?
The IC50 was under 100 nM.

Which IC50 does the source give for `O=C1c2ccc(O)cc2CCN1[C@H]1CC[C@H](C(=O)O)CC1` [VIII-16, (trans)-4-(6-hydroxy-1-oxo-3,4-dihydroisoquinolin-2(1H)-yl)cyclohexanecarboxylic acid] here?
Its IC50 is 1000 to 10000 nM.

With `CC1Cc2cc(O)ccc2C(=O)N1[C@H]1CC[C@H](C(=O)O)CC1` (stereo partly drawn) [VIII-17, (trans)-4-(6-hydroxy-3-methyl-1-oxo-3,4-dihydroisoquinolin-2(1H)-yl)cyclohexanecarboxylic acid] as the compound, how does the IC50 read?
Its IC50 is 1000 to 10000 nM.
